“Also recorded” adds a separate entry of the source.
Assays:
α-syn = target: T1, α-syn (Homo sapiens, UniProt P37840); assay: PICUP cross-linking assay of α-syn oligomer formation; assay type: biochemical
T1 construct: purchased rPeptide
Method: PICUP is a technique in which oligomer formation is induced by cross-linking. To induce oligomerization by cross-linking, α-syn (from Rpeptide, LLC) and tau isoform 2N4R were diluted in 10 mM phosphate buffer (pH 7.4) to reach a final concentration of 10 μM. Different compounds were added to the protein solution at a final concentration of 50 μM, resulting in a molar ratio of 1:5. To confirm the gradual effect of compounds on the inhibition of α-syn oligomerization, compounds were tested at final concentration of 3.125, 6.25, 12.5, 25, and 50 μM. The controls consisted of samples without light exposition, without Ru(bpy) or ammonium persulfate, and without compound (i.e., 0.125% DMSO). The cross-linking reaction was initiated by the addition of 2 μL of Ru(bpy) (300 μM final concentration) and 2 μL ammonium persulfate (6 mM final concentration).^32 Samples were irradiated immediately. Light exposure was of a 1 second duration for α-syn and a 3 second duration for tau isoform 2N4R, with a 53 W (120 V) incandescent lamp installed in a homemade dark-box. Each tube contained a final volume of 20 μL. After irradiation, 8.3 μL of Laemmli loading buffer containing 15% 0-mercaptoethanol was immediately added to the solution, followed by incubation at 95° C. for 10 min. The cross-linked samples were separated on a 16% SDS-PAGE gel and visualized by Coomassie blue staining.

[1] = α-syn inclusion formation in dox-inducible neuroblastoma cells; assay type: cell-based; conditions: human, m17d neuroblastoma cells; read-out: concentration from which a small level of toxicity is seen (cell confluence)
Method: (§1) The dox-inducible neuroblastoma cell line M17D-TR/αS3K::YFP was used to evaluate the effect of compounds in preventing the formation of inclusion following induction with Dox. Dox-inducible neuroblastoma cells M17D-TR/αS-3K::YFP have been used previously. 96-well plates were used with cellular density of 30,000 cells per well. Compounds were added after 24 h and aS-3K::YFP transgene expression was induced […]. Induction was done by adding 1 μg per mL (final concentration) dox to culture media. Cells were incubated in the Incucyte Zoom 2000 platform (Essen Biosciences) and images (green, bright field) were taken continuously. Endpoint analysis of inclusion formation or growth was performed 48 h after induction (96 h after plating). The Incucyte processing definition ‘Inclusions’ was created as follows: Parameters, Fixed Threshold, Threshold (GCU) 50; Edge Split On, Edge Sensitivity 100; Cleanup, Hole Fill (μm^2): 10, Adjust Size (pixels): 0; Filters, Area (μm^2): max 50, Mean Intensity: min 60, Integrated Intensity: min 2000. […] As described previously for the evaluation of protein expression by SDS-PAGE and Western Blotting in the LiCor system, αS-specific monoclonal antibody 4B12 (Thermofisher, Waltham, MA; 1:1000) and a polyclonal antibody to GAPDH (Sigma-Aldrich, St. Louis, MO, G9545; 1:5000) were used.

[2] = tested on: M17D-TR/αS3K::YFP neuroblastoma cells; assay: as above; assay type: cell-based
Method: as §1

[3] = tested on: Aβ-plaques isolated from AD brains; assay: Ex vivo disaggregation of Aβ-plaques (TEM); design: species or system human; conditions: compound 50 μM, 120 hours at 37° C., vs 1.5% DMSO
Source text: Amyloid-β plaques were purified from postmortem human AD brains obtained from patients diagnosed with advanced Alzheimer's (Braak stage V or VI) (Tissue Biobank at Case Western Reserve University-Cleveland Clinic) using ultracentrifugation with a sucrose gradient and cell sorting, as previously published.^38-39 Purified amyloid-β plaques were examined with polarized and fluorescence microscopy (Congo Red and Thioflavin-S staining) and scanning electron microscopy. Each aliquot of amyloid-β plaques was solubilized with 60 μL of 10 mM PBS buffer (pH 7.4). One extraction consisted of 0.28 mg/ml of protein, as measured with nanodrop (A260/280 nm). A volume of 20 μL of extraction was incubated with 1.5% DMSO (control) or compound 10 (50 μM) for 120 hours at 37° C. prior to visualization by transmission electron microscopy.
The protein quantification of the plaques isolated from AD brains were measured with nanodrop. […] Compound 10 was tested at 50 μM based on the protein levels and results obtained with PICUP experiments (FIG. 7). AP-plaque samples were incubated with 1.5% DMSO (control) or compound 10 (50 μM) in 10 mM PBS buffer (pH 7.4) for 120 hours at 37° C. prior to visualization by transmission electron microscopy. During the visualization of the grids, several paired helical filaments were observed.

[4] = Half-life and brain penetration in mice; assay type: in vivo; conditions: CD1 mice, 1 mg/kg
Source text: The concentration ration plasma:brain is near to one which is adequate.

alpha-synuclein (α-syn) = target: T2, alpha-synuclein (α-syn) (Homo sapiens, UniProt P37840); assay: Thioflavin T (ThT) fluorescence assay of α-syn fibril formation; assay type: biochemical; conditions: compound 100 μM
T2 construct: purchased rPeptide
Method: Thioflavin fluorescence assays. Thioflavin fluorescence assays were used to monitor fibril formation of recombinant α-syn, tau isoform 2N4R, treated with control DMSO and different compounds. Kinetics of α-syn fibrillization were performed using thioflavin T (ThT) as published previously.^32′ ^37 The fluorescence emission experiments were performed with the excitation and emission wavelengths set at 440 and 485 nm, respectively, with a Synergy HT multi-mode microplate reader (BioTek, Winooski, VT). Samples were measured in three replicates and the experiments were repeated three times using at least two different stock solutions. For each time point, arbitrary units of fluorescence were calculated from the mean values normalized against the maximum value in each completed assay. All results contained in FIG. 1 were presented as mean±SEM.
FIG. 1. Chemical structure, physicochemical descriptors, and the effect of compounds on alpha-synuclein (α-syn) aggregation measured as fluorescence intensity using ThT assay. TPSA, Log P, and Log D were obtained with SwissADME. BBB and pKa were obtained from the Blood-Brain Barrier Prediction Server (https://www.cbligand.org/BBB/) and Chemaxon, respectively. CNS MPO scores were assessed as published previously, The ThT (%) represent the maximum fluorescence intensity obtained at the plateau phase of the kinetics of fibrillization using 6.25 μM of α-syn. Compounds were tested at 100 μM (molar ratio 1:16). BBB, blood-brain barrier; C log D, calculated distribution coefficient at 7.4; C log P, calculated partition coefficient; CNS MPO, Central Nervous System Multi Parameter Optimization; HBA, Hydrogen Bond Acceptor; HBD, Hydrogen Bond Donor; LR5, Lipinski's rule of five; pKa, negative log of acid dissociation constant; ThT, Thioflavin T; TPSA, Topological polar surface area.

For c1cc(Nc2ncnc(Nc3cccc4[nH]ccc34)n2)c2cc[nH]c2c1 [Compound 10, N2,N4-bis(1H-indol-4-yl)-1,3,5-triazine-2,4-diamine], the “α-syn oligomer formation (PICUP, in words)” value (α-syn; compound 50 μM, high molecular weight oligomers around 50 kDa) was “inhibited both α-syn and tau oligomer formation”, the “α-syn oligomerization at different concentrations (PICUP)” value (α-syn; compound 3.125 to 50 μM) was “effective in reducing oligomerization of α-syn and tau isoform 2N4R in a dose-dependent manner” and the MCC [1] was at least 10 µM. For the same compound, the minimal effective concentration ([2]; Neuroblastoma cell, read-out: concentration from which α-syn inclusion body formation is reduced) was at least 2.5 µM, the “α-syn expression levels (Western blot)” value ([2]; compound 10 μM) was “reduced” and the “toxicity (cell confluence, in words)” value ([2]; compound 40 μM) was “more intense toxicity”. For the same compound, the “α-syn inclusion formation (punctate YFP signal, in words)” value ([2]; compound 7: 2.5 to 20 μM, compound 10: 2.5 to 40 μM, readout 96 h after plating, vs 0.1% DMSO) was “reduced α-syn inclusion formation”, the “disaggregation of Aβ-plaques (TEM, in words)” value [3] was “smaller AP-plaques; also recorded: disaggregated human Aβ plaques and NFTs” and the “concentration ratio plasma:brain” value [4] was “near to one”. For the same compound, the “crossing of the blood brain barrier” value [4] was “crossed the blood brain barrier”, the half-life [4] was “short half-life” and the “lag time of α-syn fibril elongation” value (alpha-synuclein (α-syn); α-syn 6 μM) was “delayed slightly the lag time”. It also gave an activity at 100 µM (alpha-synuclein (α-syn); α-syn 6.25 μM (molar ratio 1:16), compared with DMSO control, mean±SEM, read-out: ThT fluorescence intensity (FI), maximum at the plateau phase of α-syn fibrillization) of 13.5 ± 1.7%.

From patent US20260285847A1, “SYMMETRIC AMINOINDOLE-LINKED TRIAZINE FOR A DUAL EFFECT ON ALPHA-SYNUCLEIN AND TAU ISOFORM 2N4R FIBRILLIZATION” (Purdue Research Foundation, priority 2023, published 2026)
